{"source": "patent US12054466B2", "about": "“Compounds for the treatment of clostridium difficile infection” (University of Notre Dame du Lac, priority 2016, dated 2024)", "key": {"[1]": {"details": "cited from earlier work"}, "[2]": {"test_system": "DNA, protein and peptidoglycan synthesis in C. difficile ATCC 43255", "assay": "Macromolecular synthesis assays", "format": "cell-based", "source_text": "Macromolecular synthesis assays. The method of Mathur et al (J Antimicrob Chemother 2011, 66(5), 1087) was used with a few modifications. [2,8-^3H]-adenine (40 Ci/mmol), 1-[3,4,5-^3H(N)]-leucine (120 Ci/mmol), and N-acetyl-d-[6-^3H]-glucosamine (30 Ci/mmol) were purchased from Perkin Elmer (Waltham, MA). Ciproflaxin, linezolid, and oxacillin, were used as positive controls for DNA, protein, and peptidoglycan, respectively. Ciprofloxacin and oxacillin were purchased from Sigma-Aldrich (St. Louis, MO), linezolid was obtained from AmplaChem Inc. (Carmel, IN). […] Aliquots were taken every 30 min for radioactive counting and viability. Optimal incubation times were 60 min for DNA, 180 min for protein, and 120 min for peptidoglycan."}, "[3]": {"test_system": "C. difficile strain ATCC 43255", "assay": "Mouse model of recurrent CDI, survival", "details": "po once a day for 5 days; oxadiazole 2 20 mg/kg/day, vancomycin 50 mg/kg/day"}, "C. difficile ATCC43255": {"test_system": "C. difficile ATCC43255", "assay": "Inhibition of vegetative cells, spores and toxins in exponential phase cells"}, "[4]": {"details": "mouse, in vivo, po, 20 mg/kg, 24 h"}, "[5]": {"assay": "Pharmacokinetics after single po and iv administration"}, "[6]": {"test_system": "C. difficile strain ATCC 43255", "assay": "Mouse model of recurrent CDI, second study: fecal cell, spore and toxin evaluation", "format": "in vivo, mice", "procedure": "C. difficile Mouse Model. […] A negative vehicle control will be included. […] This study was conducted in duplicates.\nA second study was conducted with oxadiazole 2 given po at 20 or 40 mg/kg for 5 days and vancomycin administered at 50 mg/kg po for 5 days. Fecal samples were collected on days 3, 7, and 10 for C. difficile spore and toxin evaluation."}, "[7]": {"assay": "Toxicity and fecal concentration after multiple oral doses"}, "C. difficile": {"test_system": "C. difficile", "assay": "MIC against C. difficile (strain not named; 14 strains overall)", "format": "cell-based, Clostridium difficile", "details": "14 C. difficile strains"}, "C. difficile infection": {"test_system": "C. difficile infection", "details": "cited from earlier work"}, "[8]": {"details": "summary statement, species not given"}, "[9]": {"details": "40 mg/kg/day po for 5 days, uninfected mice"}, "[10]": {"details": "female, C57B1/6, mouse, feces, po, 40 mg/kg/day"}}, "note": "Read-outs that look alike come from different tables or passages of the source.", "data": [{"smiles": "FC(F)(F)c1ccc(Oc2ccc(-c3noc(-c4ccc5[nH]ccc5c4)n3)cc2)cc1", "note": "[Compound 1]", "values": [{"measurement": "clearance", "setting": "[1]; in words", "value": "low clearance"}, {"measurement": "Oral bioavailability", "setting": "[1]; [8]", "value": 97, "unit": "%"}, {"measurement": "Terminal half-life", "setting": "[1]; [8]", "value": 18.6, "unit": "h"}]}, {"smiles": "Oc1ccc(-c2nc(-c3ccc(OC4CCCC4)cc3)no2)cc1", "note": "[Compound 2]", "values": [{"measurement": "Inhibition of peptidoglycan synthesis", "setting": "[2]; N-acetyl-d-[6-3H]-glucosamine incorporation, ½ MIC, 120 min", "value": "54.8±3.7", "unit": "%"}, {"measurement": "Inhibition of DNA synthesis", "setting": "[2]; [2,8-3H]adenine incorporation, in words", "value": "not significant"}, {"measurement": "Inhibition of protein synthesis", "setting": "[2]; l-[3,4,5-3H(N)]-leucine incorporation, in words", "value": "not significant"}, {"measurement": "Survival after 25 days", "setting": "[3]", "value": 70, "unit": "%"}, {"measurement": "Concentration that inhibited growth of vegetative cells", "setting": "C. difficile ATCC43255; 24 hours", "value": 1, "unit": "×MIC"}, {"measurement": "Concentration that inhibited toxin production", "setting": "C. difficile ATCC43255; 24 hours, TcdA and TcdB by ELISA", "value": 1, "unit": "×MIC"}, {"measurement": "Concentration that inhibited spore production", "setting": "C. difficile ATCC43255; 48 hours", "value": "¼"}, {"measurement": "Concentration that inhibited toxin production", "setting": "C. difficile ATCC43255; 48 hours", "value": 1, "unit": "×MIC"}, {"measurement": "Concentration that inhibited spores", "setting": "C. difficile ATCC43255; 72 hours", "value": 1, "unit": "×MIC"}, {"measurement": "Concentration that inhibited toxin production", "setting": "C. difficile ATCC43255; 72 hours", "value": 1, "unit": "×MIC"}, {"measurement": "Concentration that inhibited vegetative cells", "setting": "C. difficile ATCC43255; 72 hours", "value": 1, "unit": "×MIC"}, {"measurement": "Level in feces as multiple of MIC", "setting": "[4]", "value": "approximately 20 ×MIC"}, {"measurement": "Clearance as share of hepatic blood flow", "setting": "[5]; mice, 20 mg/kg iv", "value": "approximately 20%"}, {"measurement": "Absolute oral bioavailability F", "setting": "[5]; mice, 20 mg/kg po vs iv, 20 mg/kg", "value": 4, "unit": "%"}, {"measurement": "concentration at 24 h", "setting": "[5]; mouse, feces, po, 20 mg/kg", "value": "43000 ± 3000", "unit": "ng/g"}, {"measurement": "AUC(0-inf)", "setting": "[5]; mouse, plasma, iv, 20 mg/kg", "value": 19200, "unit": "ng·h/mL"}, {"measurement": "Vd", "setting": "[5]; mouse, plasma, iv, 20 mg/kg", "value": 1.8, "unit": "L/kg"}, {"measurement": "clearance", "setting": "[5]; mouse, plasma, iv, 20 mg/kg", "value": 17.4, "unit": "mL/min/kg"}, {"measurement": "half-life", "setting": "[5]; mouse, plasma, iv, 20 mg/kg", "value": 1.2, "unit": "h"}, {"measurement": "bioavailability", "setting": "[5]; mouse, plasma, oral, 20 mg/kg, Absolute oral bioavailability F, mice, 20 mg/kg po vs iv", "value": 3.8, "unit": "%"}, {"measurement": "AUC(0-inf)", "setting": "[5]; mouse, plasma, po, 20 mg/kg", "value": 733, "unit": "ng·h/mL"}, {"measurement": "Cmax", "setting": "[5]; mouse, plasma, po, 20 mg/kg", "value": 300, "unit": "ng/mL"}, {"measurement": "half-life", "setting": "[5]; mouse, plasma, po, 20 mg/kg", "value": 1.1, "unit": "h"}, {"measurement": "Decrease in spores in feces", "setting": "[6]; 20 mg/kg group", "value": 3, "unit": "log"}, {"measurement": "Total cell counts in feces, lower on day 10 compared to day 3", "setting": "[6]; 20 mg/kg/day for 5 days", "value": 3.44, "unit": "log"}, {"measurement": "Spores in feces", "setting": "[6]; 40 mg/kg group, days 3, 7 and 10, in words", "value": "no spores were observed at any time"}, {"measurement": "Toxin production in feces", "setting": "[6]; 40 mg/kg group, in words", "value": "no toxin production was detected"}, {"measurement": "Total cell counts in feces, lower on day 10 compared to day 3", "setting": "[6]; 40 mg/kg/day for 5 days", "value": 4.68, "unit": "log"}, {"measurement": "Reduction in spores in feces", "setting": "[6]; b100, 20 mg/kg", "value": 1.85, "unit": "log"}, {"measurement": "Reduction in vegetative cells in feces by day 10", "setting": "[6]; dose of compound 2 not stated", "value": "about 3 log"}, {"measurement": "Tolerability", "setting": "[7]; [9]", "value": "well tolerated"}, {"measurement": "Weight loss", "setting": "[7]; [9]", "value": "did not result in weight loss"}, {"measurement": "Body weight", "setting": "[7]; Day 1, 40 mg/kg/day po for 5 days, uninfected mice", "value": "19.6 ± 0.6", "unit": "g"}, {"measurement": "Body weight", "setting": "[7]; Day 2, 40 mg/kg/day po for 5 days, uninfected mice", "value": "19.8 ± 0.6", "unit": "g"}, {"measurement": "Body weight", "setting": "[7]; Day 3, 40 mg/kg/day po for 5 days, uninfected mice", "value": "19.8 ± 1.0", "unit": "g"}, {"measurement": "Body weight", "setting": "[7]; Day 4, 40 mg/kg/day po for 5 days, uninfected mice", "value": "19.7 ± 1.0", "unit": "g"}, {"measurement": "Body weight", "setting": "[7]; Day 5, 40 mg/kg/day po for 5 days, uninfected mice", "value": "19.4 ± 0.6", "unit": "g"}, {"measurement": "Oxadiazole 2 in Feces", "setting": "[7]; Day 5, 40 mg/kg/day po for 5 days, uninfected mice, 40 mg/kg/day", "value": "30.8 ± 11.1", "unit": "μg/g feces"}, {"measurement": "concentration at 5 day", "setting": "[7]; female, C57B1/6, mouse, feces, oral, 40 mg/kg", "value": 30800, "unit": "ng/mL"}, {"measurement": "concentration at 1 day", "setting": "[7]; [10]", "value": "9800 ± 400", "unit": "ng/g"}, {"measurement": "concentration at 2 day", "setting": "[7]; [10]", "value": "15000 ± 3700", "unit": "ng/g"}, {"measurement": "concentration at 3 day", "setting": "[7]; [10]", "value": "18100 ± 2400", "unit": "ng/g"}, {"measurement": "concentration at 4 day", "setting": "[7]; [10]", "value": "16900 ± 1800", "unit": "ng/g"}, {"measurement": "concentration at 5 day", "setting": "[7]; [10]", "value": "30800 ± 11100", "unit": "ng/g"}]}, {"smiles": "CCc1c(Cl)c(O)c(Cl)c(O)c1C(=O)O[C@H]1[C@H](O)[C@H](OC)[C@H](OC/C2=C\\C=C\\C[C@H](O)/C(C)=C/[C@H](CC)[C@@H](O[C@@H]3OC(C)(C)[C@@H](OC(=O)C(C)C)[C@H](O)[C@@H]3O)/C(C)=C/C(C)=C/C[C@@H]([C@@H](C)O)OC2=O)O[C@@H]1C", "note": "[fidaxomicin]", "values": [{"measurement": "MIC range in 14 C. difficile strains", "setting": "C. difficile", "value": "<0.01 to 0.25", "unit": "µg/mL"}, {"measurement": "Treatment failure", "setting": "C. difficile infection; CDI", "value": 12, "unit": "%"}, {"measurement": "Patients with recurrence of the infection", "setting": "C. difficile infection; patients treated for CDI", "value": "About 25%"}]}]}
